According to patent US11053204B2, “Pyrimidinyloxy benzene derivatives as herbicides” (FMC Corporation, priority 2015, dated 2021):

Columns and labels:
Experiment in all cases: Test C postemergence, plant response rating
Assay type in all cases: in vivo
[1] = tested on: barnyardgrass (Echinochloa crus-galli); settings: Echinochloa crus-galli, post-emergence
Procedure, shortened: (§1)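 Greenhouse plants rated visually against untreated controls 13–15 d after treatment, scale 0 = no effect to 100 = complete control. Postemergence sprays went onto potted plants 2–18 cm tall (1–4 leaves); preemergence sprays onto soil freshly sown in loam–sand or silt loam, chemicals formulated in non-phytotoxic solvent with surfactant.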

[2] = tested on: blackgrass (Alopecurus myosuroides); settings: Alopecurus myosuroides, post-emergence
Procedure, shortened: as §1

[3] = tested on: corn (Zea mays); settings: Zea mays, post-emergence
Procedure, shortened: as §1

[4] = tested on: crabgrass, large (large crabgrass, Digitaria sanguinalis); settings: Digitaria sanguinalis, post-emergence
Procedure, shortened: as §1

[5] = tested on: galium (catchweed bedstraw, Galium aparine); settings: Galium, post-emergence
Procedure, shortened: as §1

[6] = tested on: kochia (Kochia scoparia); settings: Bassia scoparia, post-emergence
Procedure, shortened: as §1

[7] = tested on: lambsquarters (Chenopodium album); settings: Chenopodium album, post-emergence
Procedure, shortened: as §1

[8] = tested on: nutsedge, yellow (yellow nutsedge, Cyperus esculentus); settings: Cyperus, post-emergence
Procedure, shortened: as §1

[9] = tested on: oat, wild (wild oat Avena fatua); settings: Avena fatua, post-emergence
Procedure, shortened: as §1

[10] = tested on: oilseed rape (Brassica napus); settings: Brassica napus, post-emergence
Procedure, shortened: as §1

[11] = tested on: ragweed (common ragweed, Ambrosia elatior); settings: Ambrosia artemisiifolia, post-emergence
Procedure, shortened: as §1

[12] = tested on: ryegrass, Italian (Italian ryegrass, Lolium multiflorum); settings: Lolium multiflorum, post-emergence
Procedure, shortened: as §1

[13] = tested on: soybean (Glycine max); settings: Glycine max, post-emergence
Procedure, shortened: as §1

[14] = tested on: velvetleaf (Abutilon theophrasti); settings: Abutilon theophrasti, post-emergence
Procedure, shortened: as §1

[15] = tested on: waterhemp (common waterhemp, Amaranthus rudis); settings: for Plant response rating, Waterhemp: scale 0 to 100; for Waterhemp plant response rating: scale 0 to 100 (0 no effect, 100 complete control)
Procedure, shortened: as §1

[16] = tested on: wheat (winter wheat, Triticum aestivum); settings: Triticum aestivum, post-emergence
Procedure, shortened: as §1

[17] = 62 g ai/ha, scale 0 to 100 (0 no effect, 100 complete control)
[18] = 125 g ai/ha, scale 0 to 100 (0 no effect, 100 complete control)

SMILES: O=C(OCCC(F)(F)F)c1c(Br)cccc1Oc1ncc(Cl)cn1 [Compound 26, 3,3,3-trifluoropropyl 2-bromo-6-[(5-chloro-2-pyrimidinyl)oxy]benzoate]
- pest or weed control at 16 g/ha ([1]; 16 g ai/ha, scale 0 to 100): 10%
- pest or weed control at 31 g/ha ([1]; 31 g ai/ha, scale 0 to 100): 10%
- pest or weed control at 62 g/ha [1, 17]: 20%
- pest or weed control at 125 g/ha [1, 18]: 30%
- pest or weed control at 16 g/ha ([2]; 16 g ai/ha, scale 0 to 100): 10%
- pest or weed control at 31 g/ha ([2]; 31 g ai/ha, scale 0 to 100): 15%
- pest or weed control at 62 g/ha [2, 17]: 15%
- pest or weed control at 125 g/ha [2, 18]: 35%
- Corn plant response rating (crop injury, 0 = no effect, 100 = complete kill) at 16 g/ha ([3]; 16 g ai/ha, scale 0 to 100): 20%
- Corn plant response rating (crop injury, 0 = no effect, 100 = complete kill) at 31 g/ha ([3]; 31 g ai/ha, scale 0 to 100): 25%
- plant injury at 62 g/ha [3, 17]: 20%
- plant injury at 125 g/ha [3, 18]: 25%
- pest or weed control at 16 g/ha ([4]; 16 g ai/ha, scale 0 to 100): 10%
- pest or weed control at 31 g/ha ([4]; 31 g ai/ha, scale 0 to 100): 20%
- pest or weed control at 62 g/ha [4, 17]: 25%
- pest or weed control at 125 g/ha [4, 18]: 65%
- pest or weed control at 16 g/ha ([5]; 16 g ai/ha, scale 0 to 100): 55%
- pest or weed control at 31 g/ha ([5]; 31 g ai/ha, scale 0 to 100): 80%
- pest or weed control at 62 g/ha [5, 17]: 95%
- pest or weed control at 125 g/ha [5, 18]: 95%
- pest or weed control at 16 g/ha ([6]; 16 g ai/ha, scale 0 to 100): 90%
- pest or weed control at 31 g/ha ([6]; 31 g ai/ha, scale 0 to 100): 90%
- pest or weed control at 62 g/ha [6, 17]: 90%
- pest or weed control at 125 g/ha [6, 18]: 95%
- pest or weed control at 16 g/ha ([7]; 16 g ai/ha, scale 0 to 100): 75%
- pest or weed control at 31 g/ha ([7]; 31 g ai/ha, scale 0 to 100): 90%
- pest or weed control at 62 g/ha [7, 17]: 98%
- pest or weed control at 125 g/ha [7, 18]: 98%
- pest or weed control at 16 g/ha ([8]; 16 g ai/ha, scale 0 to 100): 5%
- pest or weed control at 31 g/ha ([8]; 31 g ai/ha, scale 0 to 100): 10%
- pest or weed control at 62 g/ha [8, 17]: 10%
- pest or weed control at 125 g/ha [8, 18]: 10%
- pest or weed control at 16 g/ha ([9]; 16 g ai/ha, scale 0 to 100): 10%
- pest or weed control at 31 g/ha ([9]; 31 g ai/ha, scale 0 to 100): 10%
- pest or weed control at 62 g/ha [9, 17]: 15%
- pest or weed control at 125 g/ha [9, 18]: 35%
- plant injury at 16 g/ha ([10]; 16 g ai/ha, scale 0 to 100): 40%
- plant injury at 31 g/ha ([10]; 31 g ai/ha, scale 0 to 100): 75%
- plant injury at 62 g/ha [10, 17]: 75%
- plant injury at 125 g/ha [10, 18]: 80%
- pest or weed control at 16 g/ha ([11]; 16 g ai/ha, scale 0 to 100): 40%
- pest or weed control at 31 g/ha ([11]; 31 g ai/ha, scale 0 to 100): 55%
- pest or weed control at 62 g/ha [11, 17]: 55%
- pest or weed control at 125 g/ha [11, 18]: 90%
- pest or weed control at 16 g/ha ([12]; 16 g ai/ha, scale 0 to 100): 5%
- pest or weed control at 31 g/ha ([12]; 31 g ai/ha, scale 0 to 100): 5%
- pest or weed control at 62 g/ha [12, 17]: 10%
- pest or weed control at 125 g/ha [12, 18]: 10%
- plant injury at 16 g/ha ([13]; 16 g ai/ha, scale 0 to 100): 65%
- plant injury at 31 g/ha ([13]; 31 g ai/ha, scale 0 to 100): 55%
- plant injury at 62 g/ha [13, 17]: 65%
- plant injury at 125 g/ha [13, 18]: 75%
- pest or weed control at 16 g/ha ([14]; 16 g ai/ha, scale 0 to 100): 30%
- pest or weed control at 31 g/ha ([14]; 31 g ai/ha, scale 0 to 100): 55%
- pest or weed control at 62 g/ha ([14]; 62 g ai/ha, scale 0 to 100 (0 no effect, 100 complete control), read-out: Velvetleaf plant response rating): 75%
- pest or weed control at 125 g/ha [14, 18]: 80%
- Plant response rating, Waterhemp ([15]; 16 g ai/ha): 95
- Plant response rating, Waterhemp ([15]; 31 g ai/ha): 98
- Waterhemp plant response rating ([15]; 62 g ai/ha): 98
- Waterhemp plant response rating ([15]; 125 g ai/ha): 100
- plant injury at 16 g/ha ([16]; 16 g ai/ha, scale 0 to 100): 0%
- plant injury at 31 g/ha ([16]; 31 g ai/ha, scale 0 to 100): 0%
- plant injury at 62 g/ha ([16]; 62 g ai/ha, scale 0 to 100 (0 no effect, 100 complete control), read-out: Wheat plant response rating): 5%
- plant injury at 125 g/ha [16, 18]: 10%
